The text below walks through data of US4973593A, “Novel compounds for the treatment of hypertension” (Research Corporation Technologies, Inc., priority 1987, dated 1990).

Molecules are shown by their SMILES.

Assay [1] deals with cat cardioaccelerator nerve. Put plainly: Cat Cardioaccelerator Nerve Assay (in vivo peripheral dopamine agonist activity). The note with it: for % inhibn of nerve stimulation: N=3; for peripheral dopamine agonist activity: in vivo, summary of Table I. The method, then: Cats were anesthetized by injection of pentobarbital sodium (30 mg/kg) into the thoracic cavity, and the surgical and experimental procedure was according to the procedure described in Cannon, J. G., et al. in J. Med. Chem. 1984, 27, 186. Experimental compounds were administered intravenously in doses of 0.33 log intervals.
The compounds 11, 15, and 18 were evaluated for in vivo dopamine agonist activity in the cat cardioaccelerator nerve assay.

The subject of the next assay is nigrostriatal projection. Put plainly: Rotation Assay (circling behavior, 6-hydroxydopamine unilateral denervation of the nigrostriatal projection). The assay is classed as in vivo, Male Sprague-Dawley rats. Conditions: for antagonism of apomorphine-induced rotations in rats: apomorphine 0.25 mg/kg, compound 4.0 mg/kg; for rotational behavior in rats with unilateral lesions of the nigrostriatal projection: dose 4.0 mg/kg. The method, then: Male Sprague-Dawley rats with 6-hydroxydopamine unilateral denervation of the nigrostriatal projection were used to test compounds for circling behavior according to the procedure of Cannon, et al. in J. Med. Chem 1984, 27, 186. Compounds were administered at a dose of 4.0 mg/kg and were also evaluated for their ability to antagonize apomorphine (0.25 mg/kg) induced rotations.
Finally, the compounds 11, 15, and 18 were evaluated for in vivo rat rotation assay.

Another assay concerns dopamine receptor. The assay can be described thus: Dopamine Receptor Binding Studies ([^3 H]spiroperidol displacement, rat striatal tissue). Conditions: [^3 H]spiroperidol 2 nM. The method, then:
A method of Seeman, et al., Proc. Natl. Acad. Sci. U.S.A., 1975, 72, 4376, was employed using [^3 H]spiroperidol (2 nM) and rat striatal tissue.
Compound 11 was also evaluated for its ability to displace [^3 H] spiroperidol (2nm) from rat striatal tissue.

Turning to `CN1CCCC2(OCCO2)C1Cc1c[nH]c2ccccc12` (stereo not drawn) [Compound 15, 6-(3-Indolylmethyl)-7-methyl-1,4-dioxa-7-azaspiro[4.5]decane], in assay [1] (dose 3.5, iv), the arterial pressure entry is reported as “Increased arterial pressure at this dose”, the heart rate entry is “Increased heart rate slightly at this dose” and the “% inhibn of nerve stimulation” value came out at 32 ± 17.4%. Further, the “peripheral dopamine agonist activity” value in assay [1] was “effective agonist activity”. For the same molecule, in the assay on nigrostriatal projection, the “antagonism of apomorphine-induced rotations in rats” value (from here on “antagonism”) was “nor did they antagonize apomorphine-induced rotations” and the “rotational behavior in rats with unilateral lesions of the nigrostriatal projection” value (“rotational behavior in rats” for short) is “None of the compounds screened produced rotational behavior”.
In the case of `CN1CCCC2(OCCO2)C1Cc1cccc2[nH]ccc12` (stereo not drawn) [Compound 11, 6-(4-Indolylmethyl)-7-methyl-1,4-dioxa-7-azaspiro[4.5]decane], the “% inhibn of nerve stimulation” value in assay [1] (dose 0.035, iv) is given as 26 ± 19%; in assay [1] (dose 0.105, iv), 48 ± 21%; in assay [1] (dose 0.315, iv) it was 79 ± 11%. Besides, the “peripheral dopamine agonist activity” value in assay [1] is “effective agonist activity”. In addition, the “ability to displace [^3 H]spiroperidol from rat striatal tissue” value in the assay with dopamine receptor is “inactive”. The “antagonism” value in the assay on nigrostriatal projection is “nor did they antagonize apomorphine-induced rotations”. Further, the “rotational behavior in rats” value in the assay with nigrostriatal projection was “None of the compounds screened produced rotational behavior”.
Regarding `CN1CCCC2(OCCO2)C1Cc1ccccc1` (stereo not drawn) [Compound 18, 6-Benzyl-7-methyl-1,4-dioxa-7-azaspiro[4.5]decane], the “% inhibn of nerve stimulation” value in assay [1] (dose 0.46, iv) came to 22 ± 11.7%. In assay [1] (dose 1.38, iv), the heart rate entry is given as “Increased heart rate slightly at this dose” and the “% inhibn of nerve stimulation” value is recorded as 18 ± 2.0%. Moreover, in assay [1] (dose 4.60, iv), the arterial pressure entry is reported as “Increased arterial pressure at this dose” and the “% inhibn of nerve stimulation” value was found to be 36 ± 12.3%. For the same molecule, the “peripheral dopamine agonist activity” value in assay [1] was “effective agonist activity”. For the same molecule, in the assay on nigrostriatal projection, the “antagonism” value is “nor did they antagonize apomorphine-induced rotations” and the “rotational behavior in rats” value is on record as “None of the compounds screened produced rotational behavior”.
